{"source": "patent US12083165B2", "about": "“Thymosin alpha 1 for use in treatment of cystic fibrosis” (SciClone Pharmaceuticals International (SG) PTE. LTD., priority 2015, dated 2024)", "key": {"[1]": {"test_system": "A. fumigatus-infected C57BL/6 and Cftr−/− mice", "experiment": "Th cytokines in lungs and transcription factors in draining thoracic lymph nodes (ELISA or RT-PCR)", "format": "in vivo", "protocol": "Mice. Wild-type (WT) inbred C57BL6 mice, 8 to 12 weeks old, were purchased from Charles River Breeding Laboratories (Calco, Italy). Genetically engineered homozygote Cftr^−/− mice (33) were bred at the Cystic Fibrosis core animal facility at San Raffaele Hospital, Milan, Italy. Experiments were performed following protocols approved by the institutional animal committee and in accordance with European Economic Community Council Directive as well as institutional animal care and use guidelines.\nInfection and treatments. Mice were anesthetized by i.p. injection of 2.5% avertin (Sigma Chemical Co, St. Louis, MO) before intranasal instillation of 2×10^7 A. fumigatus (Af293) resting conidia/20 μl saline. For histology, paraffin-embedded tissue were stained with Periodic acid-Schiff (PAS), and BAL fluid collection was done as described (21, 22). Treatments were as follow: Tα1 and the scrambled polypeptide were supplied as purified (the endotoxin levels were <0.03 pg/ml, by a standard limulus lysate assay) sterile, lyophilized, acetylated polypeptide. The sequences were as follows: Ac-[…]O (Tα1) (SEQ ID NO:1) and Ac-[…]OH (scrambled peptide) (SEQ ID NO:2). The lyophilized powders were reconstituted in sterile water and 200 μg/kg/i.p. were given daily for 6 consecutive days beginning the day of the infection.\n(§1) Reverse transcriptase-polymerase chain reaction (RT-PCR). Total RNA extraction and synthesis and PCR of cDNA were done on total lung cells as described (21, 22). Amplification efficiencies were validated and normalized against Gapdh. The thermal profile for SYBR Green real-time PCR was at 95° C. for 3 min, followed by 40 cycles of denaturation for 30 s at 95° C. and an annealing/extension step of 30 s at 60° C. Each data point was examined for integrity by analysis of the amplification plot. The mRNA-normalized data were expressed as relative mRNA in treated cells compared to that of unstimulated cells.\nCytokine determination by ELISA. Cytokine levels in lung homogenates from treated and untreated mice were determined by cytokine-specific ELISA (R&D Systems, Inc. Space Import-Export srl, Milan, Italy) as described (21, 22)\nThe inflammatory Th17 pathway is involved in CF lung inflammation (21, 22, 43) while the Th2 pathway is associated with CF fungal allergy (44). For the assessment of the effects of Tα1 on Th cell activation, levels of Th cytokines in the lungs and of the corresponding transcription factors in the draining thoracic lymph nodes have been measured in C57BL/6 and Cftr^−/− mice infected and treated with Tα1 as above. Tα1 decreased Th17 (decreased levels of IL-17A and of the Th17 transcription factor Rorc), Th2 (low IL-4 and Gata3) cell activation while promoting both Th1 (increased IFN-γ and Tbet) and Treg (increased IL-10 and Foxp3) cell activity. […] The cytokine levels were assessed in lung homogenates (by ELISA or RT-PCR) and the expression of the corresponding Th transcription factors (by RT-PCR) in the draining thoracic lymph nodes. The results shown represent pooled data from two experiments. n.d. not done. *P<0.05; **P<0.01; ***P<0.001."}, "[2]": {"test_system": "TMEM16A", "experiment": "TMEM16A mRNA expression by RT-PCR in HBE cells from control or CF patients", "format": "cell-based, human", "details": "100 ng/ml", "protocol": "as §1\nPharmacological correction of the ion transport defect by targeting of mutant CFTR, or alternative ion channels that may compensate for CFTR dysfunction, has long been considered as an attractive approach to a causal therapy of CF (37). […] Activation of TMEM16A with pharmacological agents could circumvent the primary defect in CF, irrespective of CFTR genotype (40). […] Based upon these findings, whether TMEM16A expression was induced by Tα1 on HBE cells from control or CF patients has been evaluated. To this purpose cells have been exposed to 100 ng/ml of Tα1 up to 24 hours and assessed TMEM16A mRNA expression by RT-PCR on total RNA from cells."}, "[3]": {"details": "draining thoracic lymph nodes, RT-PCR"}}, "data": [{"substance": "Ac-Ser-Asp-Ala-Ala-Val-Asp-Thr-Ser-Ser-Glu-Ile-Thr-Thr-Lys-Asp-Leu-Lys-Glu-Lys-Lys-Glu-Val-Val-Glu-Glu-Ala-Glu-Asn-O (Ac-SDAAVDTSSEITTKDLKEKKEVVEEAEN-OH; not fully specified; printed as Ac-Ser-Asp-Ala-Ala-Val-Asp-Thr-Ser-Ser-Glu-Ile-Thr-Thr-Lys-Asp-Leu-Lys-Glu-Lys-Lys-Glu-Val-Val-Glu-Glu-Ala-Glu-Asn-O; listed as Homo sapiens) [Tα1, naturally occurring polypeptide of 28 amino acid; supplied as purified sterile, lyophilized, acetylated polypeptide]", "values": [{"measurement": "Foxp3 expression (Treg)", "setting": "[1]; [3]", "value": "increased"}, {"measurement": "Gata3 expression (Th2)", "setting": "[1]; [3]", "value": "low"}, {"measurement": "Tbet expression (Th1)", "setting": "[1]; [3]", "value": "increased"}, {"measurement": "Th17 transcription factor Rorc expression", "setting": "[1]; [3]", "value": "decreased"}, {"measurement": "IFN-γ level (Th1)", "setting": "[1]; lung homogenates", "value": "increased"}, {"measurement": "IL-4 level (Th2)", "setting": "[1]; lung homogenates", "value": "low"}, {"measurement": "IL-10 level (Treg)", "setting": "[1]; lung homogenates", "value": "increased"}, {"measurement": "IL-17A level (Th17)", "setting": "[1]; lung homogenates, infected and Tα1-treated C57BL/6 and Cftr−/− mice", "value": "decreased"}, {"measurement": "TMEM16A expression", "setting": "[2]; CF HBE cells, after 4 hours", "value": "markedly increased"}, {"measurement": "TMEM16A expression", "setting": "[2]; CF HBE cells, at 24 hours", "value": "remains elevated"}, {"measurement": "TMEM16A expression", "setting": "[2]; control HBE cells, after 4 hours", "value": "markedly increased"}, {"measurement": "TMEM16A expression", "setting": "[2]; control HBE cells, at 24 hours", "value": "returned to baseline levels"}]}]}
